# Assay results reported in article PMC6576746, “Rational discovery of dual-indication multi-target PDE/Kinase inhibitor for precision anti-cancer therapy using structural systems pharmacology” (PLoS Computational Biology, 2019).
# What was measured:
# Assay in all cases: biochemical
# Set-up in all cases: DiscoverX KinomeScan competition binding assay across human kinases; per cent of control at 10 and 100 uM
# CDK4 = CDK4 (Homo sapiens, UniProt P11802); conditions: competition binding, % of control; read-out: Percent Control (100 uM Levosimendan)
# Method in brief: (§1)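 KinomeScan competition binding was run across a human kinase panel at 10 μM and 100 μM levosimendan. Results are %control = (test − positive control)/(negative control − positive control) × 100.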
# TNK1 = TNK1 (Homo sapiens, UniProt Q13470); conditions: competition binding, % of control; read-out: Percent Control (100 uM Levosimendan)
# Chain of TNK1 (Q13470 whole entry): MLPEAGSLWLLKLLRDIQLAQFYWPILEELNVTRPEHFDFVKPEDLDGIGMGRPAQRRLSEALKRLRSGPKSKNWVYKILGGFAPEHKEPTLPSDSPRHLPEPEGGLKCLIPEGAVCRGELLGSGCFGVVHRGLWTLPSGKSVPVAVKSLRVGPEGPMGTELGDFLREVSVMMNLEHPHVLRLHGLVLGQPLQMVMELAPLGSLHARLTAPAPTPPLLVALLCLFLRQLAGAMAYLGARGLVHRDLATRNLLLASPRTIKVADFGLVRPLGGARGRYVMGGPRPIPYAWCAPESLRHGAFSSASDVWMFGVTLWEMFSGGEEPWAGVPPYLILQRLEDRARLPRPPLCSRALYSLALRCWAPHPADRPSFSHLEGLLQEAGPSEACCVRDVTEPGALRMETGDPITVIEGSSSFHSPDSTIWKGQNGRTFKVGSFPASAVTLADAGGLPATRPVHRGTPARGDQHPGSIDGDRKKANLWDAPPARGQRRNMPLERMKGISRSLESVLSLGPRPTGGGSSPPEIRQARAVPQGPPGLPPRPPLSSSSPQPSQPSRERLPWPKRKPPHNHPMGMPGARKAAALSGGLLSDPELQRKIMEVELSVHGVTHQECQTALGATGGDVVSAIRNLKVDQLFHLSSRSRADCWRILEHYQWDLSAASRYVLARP
# Method in brief: as §1
# WNK4 = WNK4 (Homo sapiens, UniProt Q96J92); conditions: competition binding, % of control; read-out: Percent Control (100 uM Levosimendan)
# Method in brief: as §1
# HASPIN = HASPIN (Homo sapiens, UniProt Q8TF76); conditions: competition binding, % of control; read-out: Percent Control (100 uM Levosimendan)
# Method in brief: as §1
# CSNK1A1 = CSNK1A1 (Homo sapiens, UniProt P48729); conditions: competition binding, % of control
# Chain of CSNK1A1 (P48729 whole entry): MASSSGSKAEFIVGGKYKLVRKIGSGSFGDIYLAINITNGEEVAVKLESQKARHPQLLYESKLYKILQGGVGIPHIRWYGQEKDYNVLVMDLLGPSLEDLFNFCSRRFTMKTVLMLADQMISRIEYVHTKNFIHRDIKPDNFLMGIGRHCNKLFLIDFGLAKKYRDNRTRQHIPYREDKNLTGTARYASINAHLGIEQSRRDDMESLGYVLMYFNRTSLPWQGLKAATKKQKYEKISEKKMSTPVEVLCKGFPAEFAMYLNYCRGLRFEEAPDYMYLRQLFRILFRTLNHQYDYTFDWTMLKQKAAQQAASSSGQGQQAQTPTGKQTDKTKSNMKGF
# Method in brief: as §1
# ULK2 = ULK2 (Homo sapiens, UniProt Q8IYT8); conditions: competition binding, % of control; read-out: Percent Control (100 uM Levosimendan)
# Method in brief: as §1
# ULK1 = ULK1 (Homo sapiens, UniProt O75385); conditions: competition binding, % of control; read-out: Percent Control (100 uM Levosimendan)
# Chain of ULK1 (O75385 whole entry): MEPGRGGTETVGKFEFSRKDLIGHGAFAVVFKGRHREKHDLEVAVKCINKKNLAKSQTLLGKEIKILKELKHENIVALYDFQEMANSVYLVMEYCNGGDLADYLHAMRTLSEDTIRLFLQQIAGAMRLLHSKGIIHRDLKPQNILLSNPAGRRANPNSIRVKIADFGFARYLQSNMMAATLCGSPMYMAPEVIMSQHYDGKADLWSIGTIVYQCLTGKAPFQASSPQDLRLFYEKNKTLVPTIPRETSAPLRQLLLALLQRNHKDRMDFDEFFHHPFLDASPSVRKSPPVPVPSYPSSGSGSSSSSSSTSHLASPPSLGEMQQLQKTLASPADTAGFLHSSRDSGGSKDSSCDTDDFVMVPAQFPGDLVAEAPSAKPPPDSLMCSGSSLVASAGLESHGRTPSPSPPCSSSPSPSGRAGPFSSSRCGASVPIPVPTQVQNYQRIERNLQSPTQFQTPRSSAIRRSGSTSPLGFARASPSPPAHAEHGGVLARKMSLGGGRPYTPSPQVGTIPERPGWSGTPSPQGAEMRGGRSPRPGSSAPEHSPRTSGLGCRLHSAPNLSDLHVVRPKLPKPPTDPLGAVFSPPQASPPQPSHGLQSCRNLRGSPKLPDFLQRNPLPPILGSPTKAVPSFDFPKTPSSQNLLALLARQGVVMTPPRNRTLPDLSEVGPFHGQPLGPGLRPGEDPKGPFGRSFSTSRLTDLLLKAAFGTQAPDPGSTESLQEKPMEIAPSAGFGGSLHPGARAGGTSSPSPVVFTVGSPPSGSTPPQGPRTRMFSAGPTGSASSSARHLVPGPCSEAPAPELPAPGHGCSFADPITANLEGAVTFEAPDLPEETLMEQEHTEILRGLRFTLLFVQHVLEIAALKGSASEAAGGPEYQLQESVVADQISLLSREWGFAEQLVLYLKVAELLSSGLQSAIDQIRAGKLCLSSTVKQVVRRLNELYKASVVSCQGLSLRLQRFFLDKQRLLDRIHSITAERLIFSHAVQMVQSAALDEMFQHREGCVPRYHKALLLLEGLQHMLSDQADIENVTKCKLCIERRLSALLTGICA
# Method in brief: as §1
# TAOK1 = TAOK1 (Homo sapiens, UniProt Q7L7X3); conditions: competition binding, % of control; read-out: Percent Control (100 uM Levosimendan)
# Method in brief: as §1
# EPHA1 = EPHA1 (Homo sapiens, UniProt P21709); conditions: competition binding, % of control; read-out: Percent Control (100 uM Levosimendan)
# Method in brief: as §1
# NEK7 = NEK7 (Homo sapiens, UniProt Q8TDX7); conditions: competition binding, % of control; read-out: Percent Control (100 uM Levosimendan)
# Chain of NEK7 (Q8TDX7 whole entry): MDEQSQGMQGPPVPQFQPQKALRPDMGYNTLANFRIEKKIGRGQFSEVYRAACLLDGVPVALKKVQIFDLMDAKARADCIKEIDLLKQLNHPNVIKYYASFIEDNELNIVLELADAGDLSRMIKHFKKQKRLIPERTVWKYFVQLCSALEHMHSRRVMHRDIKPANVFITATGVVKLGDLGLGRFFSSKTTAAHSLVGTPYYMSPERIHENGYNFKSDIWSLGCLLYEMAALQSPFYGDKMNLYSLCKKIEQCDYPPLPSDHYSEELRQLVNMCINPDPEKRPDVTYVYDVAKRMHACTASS
# Method in brief: as §1
# PIK3CA(H1047Y) = PIK3CA(H1047Y) (Homo sapiens, UniProt P42336, H1047Y); conditions: competition binding, % of control; read-out: Percent Control (100 uM Levosimendan)
# Chain of PIK3CA(H1047Y) (P42336 whole entry H1047Y): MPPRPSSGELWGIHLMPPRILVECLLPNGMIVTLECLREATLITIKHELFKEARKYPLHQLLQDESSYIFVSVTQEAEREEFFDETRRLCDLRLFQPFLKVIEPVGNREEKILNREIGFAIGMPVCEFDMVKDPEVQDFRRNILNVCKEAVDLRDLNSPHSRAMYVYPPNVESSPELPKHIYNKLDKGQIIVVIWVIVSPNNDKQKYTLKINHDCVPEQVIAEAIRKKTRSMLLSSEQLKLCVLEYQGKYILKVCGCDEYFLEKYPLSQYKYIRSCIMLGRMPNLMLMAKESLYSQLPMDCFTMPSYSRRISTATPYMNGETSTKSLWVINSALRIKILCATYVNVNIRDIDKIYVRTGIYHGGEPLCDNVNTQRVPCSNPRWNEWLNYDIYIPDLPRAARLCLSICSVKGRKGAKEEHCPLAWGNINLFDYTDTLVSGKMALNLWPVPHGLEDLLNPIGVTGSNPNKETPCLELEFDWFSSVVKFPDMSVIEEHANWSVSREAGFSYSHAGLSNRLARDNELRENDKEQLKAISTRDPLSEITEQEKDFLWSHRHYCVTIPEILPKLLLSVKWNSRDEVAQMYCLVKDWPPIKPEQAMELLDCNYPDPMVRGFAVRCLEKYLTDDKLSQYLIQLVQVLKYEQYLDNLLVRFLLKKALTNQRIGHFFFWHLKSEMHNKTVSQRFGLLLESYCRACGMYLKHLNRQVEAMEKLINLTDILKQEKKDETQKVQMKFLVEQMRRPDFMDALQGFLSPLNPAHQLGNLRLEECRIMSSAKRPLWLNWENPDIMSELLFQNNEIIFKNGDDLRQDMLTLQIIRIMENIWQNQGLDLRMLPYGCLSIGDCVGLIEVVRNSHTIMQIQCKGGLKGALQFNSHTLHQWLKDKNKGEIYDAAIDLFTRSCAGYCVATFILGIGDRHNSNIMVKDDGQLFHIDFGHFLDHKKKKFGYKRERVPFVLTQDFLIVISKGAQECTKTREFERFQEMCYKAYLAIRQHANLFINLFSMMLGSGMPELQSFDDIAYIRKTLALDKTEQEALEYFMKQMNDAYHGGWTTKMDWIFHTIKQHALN
# Method in brief: as §1
# MKNK2 = MKNK2 (Homo sapiens, UniProt Q9HBH9); conditions: competition binding, % of control
# Chain of MKNK2 (Q9HBH9 whole entry): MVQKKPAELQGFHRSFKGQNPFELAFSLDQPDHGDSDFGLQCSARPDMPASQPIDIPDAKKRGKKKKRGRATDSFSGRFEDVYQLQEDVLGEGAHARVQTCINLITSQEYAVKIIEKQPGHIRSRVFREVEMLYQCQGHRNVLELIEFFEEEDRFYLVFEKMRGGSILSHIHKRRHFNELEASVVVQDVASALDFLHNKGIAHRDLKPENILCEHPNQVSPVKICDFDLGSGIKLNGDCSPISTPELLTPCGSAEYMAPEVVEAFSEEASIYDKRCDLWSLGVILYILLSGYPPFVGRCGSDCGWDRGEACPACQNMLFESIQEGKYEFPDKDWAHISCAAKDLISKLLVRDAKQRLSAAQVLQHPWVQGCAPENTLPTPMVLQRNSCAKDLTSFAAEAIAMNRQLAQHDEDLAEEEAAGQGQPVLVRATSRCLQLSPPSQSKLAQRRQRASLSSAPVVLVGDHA
# Method in brief: as §1
# FGFR4 = FGFR4 (Homo sapiens, UniProt P22455); conditions: competition binding, % of control; read-out: Percent Control (100 uM Levosimendan)
# Method in brief: as §1
# LTK = LTK (Homo sapiens, UniProt P29376); conditions: competition binding, % of control; read-out: Percent Control (100 uM Levosimendan)
# Method in brief: as §1
# CLK4 = CLK4 (Homo sapiens, UniProt Q9HAZ1); conditions: competition binding, % of control; read-out: Percent Control (100 uM Levosimendan)
# Method in brief: as §1
# SgK110 = molecular target: T1, SgK110 (Homo sapiens, UniProt P0C264); conditions: competition binding, % of control; read-out: Percent Control (100 uM Levosimendan)
# T1 construct: gene SBK3
# Method in brief: as §1
# PIK3CG = PIK3CG (Homo sapiens, UniProt P48736); conditions: competition binding, % of control; read-out: Percent Control (100 uM Levosimendan)
# Chain of PIK3CG (P48736 whole entry): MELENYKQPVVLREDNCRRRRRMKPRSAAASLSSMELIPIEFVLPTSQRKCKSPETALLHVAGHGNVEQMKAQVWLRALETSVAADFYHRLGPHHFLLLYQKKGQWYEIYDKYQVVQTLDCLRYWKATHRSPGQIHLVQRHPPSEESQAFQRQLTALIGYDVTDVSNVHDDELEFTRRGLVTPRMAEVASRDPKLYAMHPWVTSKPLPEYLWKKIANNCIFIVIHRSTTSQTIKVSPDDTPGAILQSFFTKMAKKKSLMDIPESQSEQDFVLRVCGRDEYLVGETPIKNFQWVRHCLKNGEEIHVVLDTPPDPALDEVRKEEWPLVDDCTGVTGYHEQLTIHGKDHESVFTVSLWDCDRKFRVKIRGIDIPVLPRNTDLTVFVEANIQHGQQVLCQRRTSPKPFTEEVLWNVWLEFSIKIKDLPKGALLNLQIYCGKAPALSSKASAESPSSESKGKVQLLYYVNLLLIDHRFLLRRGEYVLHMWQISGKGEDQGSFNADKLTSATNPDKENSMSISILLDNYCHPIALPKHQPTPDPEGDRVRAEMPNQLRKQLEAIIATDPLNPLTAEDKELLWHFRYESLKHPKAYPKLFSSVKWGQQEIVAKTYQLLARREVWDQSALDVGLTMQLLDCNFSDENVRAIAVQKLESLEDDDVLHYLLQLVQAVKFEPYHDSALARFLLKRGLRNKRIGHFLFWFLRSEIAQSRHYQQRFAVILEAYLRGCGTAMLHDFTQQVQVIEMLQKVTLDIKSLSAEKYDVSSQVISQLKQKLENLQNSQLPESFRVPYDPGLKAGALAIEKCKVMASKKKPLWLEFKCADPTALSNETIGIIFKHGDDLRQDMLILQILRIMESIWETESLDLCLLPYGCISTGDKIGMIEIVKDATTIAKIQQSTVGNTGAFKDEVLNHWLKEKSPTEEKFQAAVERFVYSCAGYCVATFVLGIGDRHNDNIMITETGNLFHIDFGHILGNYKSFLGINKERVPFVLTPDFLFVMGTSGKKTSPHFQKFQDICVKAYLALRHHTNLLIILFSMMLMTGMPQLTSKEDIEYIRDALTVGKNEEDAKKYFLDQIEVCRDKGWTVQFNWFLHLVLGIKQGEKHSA
# Method in brief: as §1
# MAST1 = MAST1 (Homo sapiens, UniProt Q9Y2H9); conditions: competition binding, % of control; read-out: Percent Control (100 uM Levosimendan)
# Method in brief: as §1
# TRKA = molecular target: T2, TRKA (Homo sapiens, UniProt P04629); conditions: competition binding, % of control; read-out: Percent Control (100 uM Levosimendan)
# T2 construct: gene NTRK1
# Method in brief: as §1
# [1] = read-out: Percent Control (10 uM Levosimendan)
# [2] = read-out: Percent Control (100 uM Levosimendan)
structure (smiles),measurement,setting,value
C[C@@H]1CC(=O)NN=C1c1ccc(NN=C(C#N)C#N)cc1 [levosimendan],remaining binding at 100 µM,CDK4,100%
same,remaining binding at 100 µM,TNK1,100%
same,remaining binding at 100 µM,WNK4,95%
same,remaining binding at 100 µM,HASPIN,69%
same,remaining binding at 10 µM,CSNK1A1; [1],98%
same,remaining binding at 100 µM,CSNK1A1; [2],42%
same,remaining binding at 100 µM,ULK2,56%
same,remaining binding at 100 µM,ULK1,95%
same,remaining binding at 100 µM,TAOK1,100%
same,remaining binding at 100 µM,EPHA1,98%
same,remaining binding at 100 µM,NEK7,100%
same,remaining binding at 100 µM,PIK3CA(H1047Y),100%
same,remaining binding at 10 µM,MKNK2; [1],59%
same,remaining binding at 100 µM,MKNK2; [2],7.5%
same,remaining binding at 100 µM,FGFR4,92%
same,remaining binding at 100 µM,LTK,96%
same,remaining binding at 100 µM,CLK4,89%
same,remaining binding at 100 µM,SgK110,100%
same,remaining binding at 100 µM,PIK3CG,80%
same,remaining binding at 100 µM,MAST1,100%
same,remaining binding at 100 µM,TRKA,65%
